# US9023813B2 (Nutek Pharma Ltd., priority 2012, dated 2015)
# Values joined by “and” are separate entries in the source; they are usually repeats but may differ in a detail not shown here. Equal values may be shown once. “Also recorded” adds a separate entry of the source.
# Experiments:
# [1] = Pharmacokinetics: plasma concentrations of prodrug and propofol after intravenous infusion (LC/MS/MS); details: for Mean concentration of prodrug and propofol in rat plasma after intravenous infusion administration / AUCinf / MRTinf / AUClast / CLp / Vdss: analyte = administered compound; for Mean Concentration of Propofol in Rat Plasma After Intravenous Administration: analyte = propofol released from the administered compound; for AUCinf / MRTinf: extrapolated to infinity; for AUClast: to last detected concentration; for CLp: total body clearance, dose/AUCinf; for Vdss: volume of distribution
# Description: (§1) Blood samples were to be taken pre-dose, during dose and post dose at designated intervals, with the blood quickly processed and stored at −70° C. until analysis.
# (§2) Formulations were prepared on the morning of the dosing day and each was passed through a 0.22 μm filter prior to being administered to animals. A standard dose of 0.168 mmol/Kg per analog was administered to each of the rats. […] Analog stability in the formulations was verified by preparing each formulation and harvesting 200 μL aliquots at 0, 1, 2 and 8 hr while standing at room temperature. After harvesting, each sample was immediately frozen in dry ice until analysis; concentrations of test compounds in the samples were examined by HPLC-UV.
# (§3) The animals were surgically prepared with indwelling cannula, double cannulation in carotid artery and jugular vein for i.v. infusion. The anesthetic pentobarbital was used during the surgery, and the animals were allowed to recover 3-5 days after surgery before the formulation was dosed. The dose formulation was administered intravenously via the jugular vein cannula. The 16.8 μmol/mL formulation was administered i.v. at a rate of 1 mL/Kg/min for 10 min.
# Approximately 0.20 mL blood was collected at each designated time point from carotid artery via a catheter. A total of 12 plasma samples were taken from each animal: 1 pre-dose; 2 during the dose (5 into the 10 min infusion and one just prior termination of the 10 min infusion) and 9 post-infusion at 2, 5, 15, 30 min and 1, 2, 3, 4, and 6 hr post-dose. All blood samples were transferred into plastic microcentrifuge tubes containing 5 μL of K2-EDTA (0.5M) as anti-coagulant and placed on ice until processed for plasma. Blood samples were processed for plasma by centrifugation at approximately 5° C. Plasma samples were then stored in 1.5 mL tubes, quick frozen over dry ice and kept at −70±10° C. until LC/MSMS analysis.
# For each, a minimum of 6 standard point curve runs in duplicates, and minimum of 5 standards were back calculated to within ±20% of their nominal concentrations. The LLOQ of each test article in plasma was established and 6 QC samples were included in assay runs of samples to ensure assay performance.
# Data Analysis. Plasma concentration versus time data was analyzed by non-compartmental approaches using the WinNonlin software program (version 5.2, Pharsight, Mountain View, Calif.) and the pharmacokinetic parameters T½, CL, Vss, AUC(0-t), AUC(0-inf), MRT, and graphs of plasma concentration versus time calculated for each.
# male Sprague Dawley rats = assay: Clinical observations of rats during administration of propofol analogs in the pharmacokinetics study
# Description: as §1, §2, §3
# [2] = Solubility determination in D2O by 1H NMR with DSS internal standard
# Description: Thus the soapy-like solutions obtained were diluted until opalescent and diluted further until the opalescence visually disappeared.
# [3] = cited from earlier work
# [4] = time post-10 min i.v. infusion, 0.168 mmol/Kg
# [5] = individual rats, post-10 min infusion, vehicle 10% Tween80
Compound,Mean concentration of prodrug and propofol in rat plasma after intravenous infusion administration ([1]; Time (h) 0),Mean concentration of prodrug and propofol in rat plasma after intravenous infusion administration ([1]; Time (h) 0.083),Mean concentration of prodrug and propofol in rat plasma after intravenous infusion administration ([1]; Time (h) 0.167),Mean concentration of prodrug and propofol in rat plasma after intravenous infusion administration ([1]; Time (h) 0.2),Mean concentration of prodrug and propofol in rat plasma after intravenous infusion administration ([1]; Time (h) 0.25),Mean concentration of prodrug and propofol in rat plasma after intravenous infusion administration ([1]; Time (h) 0.417),Mean concentration of prodrug and propofol in rat plasma after intravenous infusion administration ([1]; Time (h) 0.667),Mean concentration of prodrug and propofol in rat plasma after intravenous infusion administration ([1]; Time (h) 1.166),Mean concentration of prodrug and propofol in rat plasma after intravenous infusion administration ([1]; Time (h) 2.166),Mean concentration of prodrug and propofol in rat plasma after intravenous infusion administration ([1]; Time (h) 3.166),Mean concentration of prodrug and propofol in rat plasma after intravenous infusion administration ([1]; Time (h) 4.166),Mean concentration of prodrug and propofol in rat plasma after intravenous infusion administration ([1]; Time (h) 6.166),Mean Concentration of Propofol in Rat Plasma After Intravenous Administration ([1]; Time (h) 0),AUCinf [1] [µM·h],MRTinf [1] [h],AUClast [1] [µM·h],CLp [1] [mL/min/kg],Vdss [1] [L/kg],further results
CC(C)c1cccc(C(C)C)c1OC(=O)OCCO[C@@H]1O[C@H](CO)[C@@H](O)[C@H](O)[C@H]1O [Compound 9],BQL,BQL,BQL,BQL,BQL,BQL,BQL,BQL,BQL,BQL,BQL,BQL,BQL,,,,,,"Pro-drug behaviour (release of propofol in vivo) ([1]; rats, releasing the propofol in a matter of minutes after infusion): very efficient pro-drugs; Rats recovered at (male Sprague Dawley rats; [4]): recovered at about 30 min; Relative solubility [2]: 8.6"
CC(C)c1cccc(C(C)C)c1OC(=O)NCCO[C@@H]1O[C@H](CO)[C@@H](O)[C@H](O)[C@H]1O [Compound 17],BQL,178.796 µM,312.678 µM,152.206 µM,119.535 µM,35.206 µM,19.837 µM,8.012 µM,2.083 µM,0.3907 µM,0.0825 µM,0.0106 µM,BQL,71.764,0.277,61.644,39.1,0.657,"Mean Concentration of Propofol in Rat Plasma After Intravenous Administration ([1]; Time (h) 2.166): BQL; Mean Concentration of Propofol in Rat Plasma After Intravenous Administration ([1]; Time (h) 3.166): BQL; Mean Concentration of Propofol in Rat Plasma After Intravenous Administration ([1]; Time (h) 4.166): BQL; Mean Concentration of Propofol in Rat Plasma After Intravenous Administration ([1]; Time (h) 6.166): BQL; Rat died at infusion of (male Sprague Dawley rats; Additional Rat 4, during infusion, vehicle 10% Tween80): infusion of 8 min.; Rat died at (male Sprague Dawley rats; Rat 3, post-10 min infusion, vehicle 10% Tween80): 1.5 h; Overall outcome in rats (male Sprague Dawley rats; in its vehicle (10% tween80 cosolvent)): poor results; Rat died at (male Sprague Dawley rats; [5]): died at 15 min. and 40 min; Rat recovered (from breathlessness) at (male Sprague Dawley rats; [5]): recovered at 10 min.; died at; Cause of death (male Sprague Dawley rats; individual rats, vehicle 10% Tween80): blood hemolysis; also recorded: hematuria; Water solubility (qualitative) ([2]; reason for cosolvent): poor"
"CC(C)c1cccc(C(C)C)c1O [Propofol, 2,6-diisopropylphenol, reference compound]",,21.795 µM,31.51 µM,19.613 µM,13.37 µM,3.827 µM,3.122 µM,1.642 µM,0.841 µM,0.332 µM,0.259 µM,0.23 µM,BQL,12.634,3.48,10.576,264.7,61.2,"Onset ([3]; anesthetic onset): < 30 s; Duration of action ([3]; in vivo): ~5 min; Pain on administration (share of uses) ([3]; standard lipid formulation): 80%; Rats soporous at (male Sprague Dawley rats; [4]): Rats soporous at about 4 min and; Rats recovered at (male Sprague Dawley rats; time post-10 min infusion, 5% cremophor vehicle): recovered at about 1.5 hr"
